Experimental data from paper PMC7619385 (ACS infectious diseases, 2025).
Counter-ions that a name gives are not always drawn.

What follows are compounds tested against T1, LmxCLK1 (Leishmania mexicana, UniProt E9AMP2) (assay: biochemical). Conditions: DSF, 10 µM compound, 2 µM LmxCLK1, Run 1.
T1 sequence (E9AMP2 1-422): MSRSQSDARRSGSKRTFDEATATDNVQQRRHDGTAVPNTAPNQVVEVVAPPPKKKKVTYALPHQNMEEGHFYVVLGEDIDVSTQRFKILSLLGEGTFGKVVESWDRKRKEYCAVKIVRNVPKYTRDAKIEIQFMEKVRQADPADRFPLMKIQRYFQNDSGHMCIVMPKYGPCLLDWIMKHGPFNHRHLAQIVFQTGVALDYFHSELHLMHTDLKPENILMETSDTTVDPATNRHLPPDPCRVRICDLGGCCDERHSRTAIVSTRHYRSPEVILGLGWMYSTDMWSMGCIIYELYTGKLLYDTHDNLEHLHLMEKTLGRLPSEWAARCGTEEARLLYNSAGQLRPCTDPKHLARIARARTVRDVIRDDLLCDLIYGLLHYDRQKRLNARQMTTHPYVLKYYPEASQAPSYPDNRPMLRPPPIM
Assay type: binding

Point of comparison: `COc1ncccc1-c1cnn2ccc(N3CCN(C(=O)OC(C)C)CC3)nc12` [LP-935509 (AAK1)], “ΔTm Run 1” value -0.2 °C. Against it:
- CC[C@@H]1C(=O)N(C)c2cnc(Nc3ccc(C(=O)N[C@H]4CC[C@H](N5CCN(CC6CC6)CC5)CC4)cc3OC)nc2N1C(C)C [Volasertib (BI 6727)] — higher, 0.3 °C
- C=CC(=O)Nc1ccc2ncnc(Nc3cccc(Br)c3)c2c1 [PD168393] — higher, 0.3 °C
- Cc1ccccc1-n1c(Cn2ncc3c(N)ncnc32)nc2cccc(C)c2c1=O [PIK-293] — higher, 0.1 °C
- COc1ccc(-c2ccc3ncc4c(c3c2)n(-c2ccc(N3CCNCC3)c(C(F)(F)F)c2)c(=O)n4C)cn1 [BGT226 (NVP-BGT226)] — higher, 0.9 °C
- Cl.Cl.O=S(=O)(NCCNC/C=C/c1ccc(Br)cc1)c1cccc2cnccc12 [H 89 2HCl] — higher, 0.2 °C
- CC(O)C(=O)O.CC(O)C(=O)O.CN1CCN(c2ccc3nc(-c4c(N)c5c(F)cccc5[nH]c4=O)[nH]c3c2)CC1 [Dovitinib (TKI-258) Dilactic Acid] — lower, -0.5 °C
- CNC(=O)c1cc(Oc2ccc(NC(=O)Nc3ccc(Cl)c(C(F)(F)F)c3)cc2)ccn1 [Sorafenib Tosylate] — higher, 0.3 °C

Same assay, conditions: DSF, 10 µM compound, 2 µM LmxCLK1, Run 1; read-out: ΔTm Run 1

Point of comparison: `C#Cc1cccc(Nc2ncnc3cc(OC)c(OCCCCCCC(=O)NO)cc23)c1` [CUDC-101], ΔTm at 10 µM 0.4 °C. Against it:
- Cc1cc(NC(=O)c2cccc(NC(=O)/C=C/CN(C)C)c2)ccc1Nc1nccc(-c2cccnc2)n1 [JNK-IN-8] — lower, 0.2 °C
- Cc1cc(Nc2nc(N[C@@H](C)c3ccc(F)cc3)c(C#N)cc2F)[nH]n1 [AZ 960] — lower, 0.3 °C
- CCc1nc(-c2cccc(C)c2)c(-c2ccnc(NC(=O)c3ccccc3)c2)s1 [TAK-715] — higher, 0.5 °C
- Cc1ccc(Nc2nccc(N(C)c3ccc4c(C)n(C)nc4c3)n2)cc1S(N)(=O)=O [Pazopanib] — lower, 0.1 °C
- O=C(Nc1cc(C(F)(F)F)cc(C(F)(F)F)c1)c1cc(Cl)ccc1O [IMD 0354] — lower, 0.2 °C
- CCn1c(-c2nonc2N)nc2c(C#CC(C)(C)O)ncc(OC[C@H]3CCCNC3)c21 [GSK690693] — lower, 0.1 °C
- C=CCc1ccc(O)c(-c2ccc(O)c(CC=C)c2)c1 [Honokiol] — lower, -0.2 °C
- O=C(Nc1ccc(-c2ccnc(Nc3ccc(N4CCOCC4)cc3)n2)cc1)C1CCCN1 (stereo not drawn) [XL019] — higher, 0.6 °C
- CC(C)(C)NS(=O)(=O)c1cncc(-c2cc(F)c3nc(N)nn3c2)c1 [CZC24832] — lower, 0 °C
- COc1ccc(-c2ccc3c(N4CCOC[C@@H]4C)nc(N4CCOC[C@@H]4C)nc3n2)cc1CO [AZD8055] — the same, 0.4 °C

Same assay, conditions: DSF, 10 µM compound, 2 µM LmxCLK1, Run 2

Point of comparison: `COc1ccc(-c2ccc3ncc4c(c3c2)n(-c2ccc(N3CCNCC3)c(C(F)(F)F)c2)c(=O)n4C)cn1` [BGT226 (NVP-BGT226)], “ΔTm Run 2” value 0.7 °C. Against it:
- CC[C@@H]1C(=O)N(C)c2cnc(Nc3ccc(C(=O)N[C@H]4CC[C@H](N5CCN(CC6CC6)CC5)CC4)cc3OC)nc2N1C(C)C [Volasertib (BI 6727)] — lower, 0.0 °C
- C=CC(=O)Nc1ccc2ncnc(Nc3cccc(Br)c3)c2c1 [PD168393] — lower, -0.7 °C
- COc1ncccc1-c1cnn2ccc(N3CCN(C(=O)OC(C)C)CC3)nc12 [LP-935509 (AAK1)] — lower, -0.4 °C
- Cc1ccccc1-n1c(Cn2ncc3c(N)ncnc32)nc2cccc(C)c2c1=O [PIK-293] — lower, -0.2 °C
- Cl.Cl.O=S(=O)(NCCNC/C=C/c1ccc(Br)cc1)c1cccc2cnccc12 [H 89 2HCl] — lower, -0.1 °C
- CC(O)C(=O)O.CC(O)C(=O)O.CN1CCN(c2ccc3nc(-c4c(N)c5c(F)cccc5[nH]c4=O)[nH]c3c2)CC1 [Dovitinib (TKI-258) Dilactic Acid] — lower, -0.4 °C

Same assay, conditions: DSF, 10 µM compound, 2 µM LmxCLK1, Run 2; read-out: ΔTm Run 2

Point of comparison: `Cc1ccc(Nc2nccc(N(C)c3ccc4c(C)n(C)nc4c3)n2)cc1S(N)(=O)=O` [Pazopanib], ΔTm at 10 µM -0.4 °C. Against it:
- Cc1cc(NC(=O)c2cccc(NC(=O)/C=C/CN(C)C)c2)ccc1Nc1nccc(-c2cccnc2)n1 [JNK-IN-8] — lower, -0.5 °C
- Cc1cc(Nc2nc(N[C@@H](C)c3ccc(F)cc3)c(C#N)cc2F)[nH]n1 [AZ 960] — higher, 0.3 °C
- CCc1nc(-c2cccc(C)c2)c(-c2ccnc(NC(=O)c3ccccc3)c2)s1 [TAK-715] — higher, 0.8 °C
- O=C(Nc1cc(C(F)(F)F)cc(C(F)(F)F)c1)c1cc(Cl)ccc1O [IMD 0354] — higher, -0.1 °C
- CCn1c(-c2nonc2N)nc2c(C#CC(C)(C)O)ncc(OC[C@H]3CCCNC3)c21 [GSK690693] — higher, -0.3 °C
- C=CCc1ccc(O)c(-c2ccc(O)c(CC=C)c2)c1 [Honokiol] — higher, 0.2 °C
- O=C(Nc1ccc(-c2ccnc(Nc3ccc(N4CCOCC4)cc3)n2)cc1)C1CCCN1 (stereo not drawn) [XL019] — higher, 0.4 °C
- C#Cc1cccc(Nc2ncnc3cc(OC)c(OCCCCCCC(=O)NO)cc23)c1 [CUDC-101] — higher, 0.2 °C
- CC(C)(C)NS(=O)(=O)c1cncc(-c2cc(F)c3nc(N)nn3c2)c1 [CZC24832] — higher, -0.2 °C
- CNC(=O)c1cc(Oc2ccc(NC(=O)Nc3ccc(Cl)c(C(F)(F)F)c3)cc2)ccn1 [Sorafenib Tosylate] — higher, 0.2 °C
- COc1ccc(-c2ccc3c(N4CCOC[C@@H]4C)nc(N4CCOC[C@@H]4C)nc3n2)cc1CO [AZD8055] — higher, 0.3 °C

Same assay, conditions: DSF, 10 µM compound, 2 µM LmxCLK1, mean of two runs

Point of comparison: `CC(O)C(=O)O.CC(O)C(=O)O.CN1CCN(c2ccc3nc(-c4c(N)c5c(F)cccc5[nH]c4=O)[nH]c3c2)CC1` [Dovitinib (TKI-258) Dilactic Acid], “ΔTm Average” value -0.4 °C. Against it:
- CC[C@@H]1C(=O)N(C)c2cnc(Nc3ccc(C(=O)N[C@H]4CC[C@H](N5CCN(CC6CC6)CC5)CC4)cc3OC)nc2N1C(C)C [Volasertib (BI 6727)] — higher, 0.2 °C
- C=CC(=O)Nc1ccc2ncnc(Nc3cccc(Br)c3)c2c1 [PD168393] — higher, -0.2 °C
- COc1ncccc1-c1cnn2ccc(N3CCN(C(=O)OC(C)C)CC3)nc12 [LP-935509 (AAK1)] — higher, -0.3 °C
- Cc1ccccc1-n1c(Cn2ncc3c(N)ncnc32)nc2cccc(C)c2c1=O [PIK-293] — higher, -0.1 °C
- COc1ccc(-c2ccc3ncc4c(c3c2)n(-c2ccc(N3CCNCC3)c(C(F)(F)F)c2)c(=O)n4C)cn1 [BGT226 (NVP-BGT226)] — higher, 0.8 °C
- Cl.Cl.O=S(=O)(NCCNC/C=C/c1ccc(Br)cc1)c1cccc2cnccc12 [H 89 2HCl] — higher, 0.0 °C
- CNC(=O)c1cc(Oc2ccc(NC(=O)Nc3ccc(Cl)c(C(F)(F)F)c3)cc2)ccn1 [Sorafenib Tosylate] — higher, 0.3 °C

Same assay, conditions: DSF, 10 µM compound, 2 µM LmxCLK1, mean of two runs; read-out: ΔTm Average

Point of comparison: `Cc1cc(Nc2nc(N[C@@H](C)c3ccc(F)cc3)c(C#N)cc2F)[nH]n1` [AZ 960], ΔTm at 10 µM 0.3 °C. Against it:
- Cc1cc(NC(=O)c2cccc(NC(=O)/C=C/CN(C)C)c2)ccc1Nc1nccc(-c2cccnc2)n1 [JNK-IN-8] — lower, -0.1 °C
- CCc1nc(-c2cccc(C)c2)c(-c2ccnc(NC(=O)c3ccccc3)c2)s1 [TAK-715] — higher, 0.7 °C
- Cc1ccc(Nc2nccc(N(C)c3ccc4c(C)n(C)nc4c3)n2)cc1S(N)(=O)=O [Pazopanib] — lower, -0.2 °C
- O=C(Nc1cc(C(F)(F)F)cc(C(F)(F)F)c1)c1cc(Cl)ccc1O [IMD 0354] — lower, 0 °C
- CCn1c(-c2nonc2N)nc2c(C#CC(C)(C)O)ncc(OC[C@H]3CCCNC3)c21 [GSK690693] — lower, -0.1 °C
- C=CCc1ccc(O)c(-c2ccc(O)c(CC=C)c2)c1 [Honokiol] — lower, 0 °C
- O=C(Nc1ccc(-c2ccnc(Nc3ccc(N4CCOCC4)cc3)n2)cc1)C1CCCN1 (stereo not drawn) [XL019] — higher, 0.5 °C
- C#Cc1cccc(Nc2ncnc3cc(OC)c(OCCCCCCC(=O)NO)cc23)c1 [CUDC-101] — the same, 0.3 °C
- CC(C)(C)NS(=O)(=O)c1cncc(-c2cc(F)c3nc(N)nn3c2)c1 [CZC24832] — lower, -0.1 °C
- COc1ccc(-c2ccc3c(N4CCOC[C@@H]4C)nc(N4CCOC[C@@H]4C)nc3n2)cc1CO [AZD8055] — the same, 0.3 °C
